Reference: patent US7045523B2 (Novartis AG, priority 2001, dated 2006)

How the values were obtained:
[1] = test system: K562 cells; test: Apoptosis assay, flow cytometry with APO2.7 mAb, in K562 cells with or without 10 days of telomestatin; type: cell-based; details: for APO2.7 (%): 48 hours, K562 control cells or cells cultured with telomestatin 2 μM for 10 days; for induction of apoptosis / chemosensitivity in telomestatin-treated K562 cells compared with control cells: after exposure to the agent, the negative results are data not shown
Description: Apoptosis assay. The incidence of apoptosis was determined by flow cytometric analysis with the FITC-conjugated APO2.7 monoclonal antibody (clone 2.7), which was raised against the 38 kDa mitochondrial membrane protein (7A6 antigen) and is expressed by cells undergoing apoptosis (Nakajima et al., 2001).
To assess the effects of telomerase inhibition in modulating responses to these reagents, experiments focused on early passaged telomestatin-treated K562 cells (PD10). In this series of experiments, K562 cells are cultured with telomestatin for 10 days, subsequently the telomestatin-treated K562 cells are incubated with the agents for 48 hours, and the incidence of apoptosis is determined by flow cytometric analysis with APO2.7 mAb (Table A). Apo2.7 is the apoptosis index. Higher score means that apoptosis is induced more powerfully.

[2] = test system: human normal hematopoietic progenitor cells; test: Clonogenic assay on normal hematopoietic progenitor cells; type: cell-based; details: at concentrations 10 times higher than those that completely inhibit colonies from OM9;22R cells
[3] = test system: OM9;22 or OM9;22R cells; test: Cell proliferation (growth kinetics) of OM9;22 / OM9;22R cells; type: cell-based, human; details: OM9;22 or Imatinib-resistant OM9;22R cells
Description: Cells and cell culture: The Ph-positive acute lymphoblastic cell line OM9;22 has been described previously (Ohyashiki et al., 1993). K562 cells were obtained from the American Type Culture Collection (Rockville, Md.). These cell lines were cultured in McCoy's 5A modified medium (Life Technology, Inc.) supplemented with 10% fetal calf serum (Hyclone Laboratories, Logan, Utah).
Effects of telomestatin on cell proliferation. We characterize the growth properties of telomestatin-treated cells. […] In a further study, we can characterize the ability of telomestatin to inhibit BCR-ABL transformation.

sensitivity of human normal hematopoietic progenitor cells [2] | SMILES | APO2.7 (%) ([1]; 10 nM agent) | APO2.7 (%) ([1]; 50 nM agent) | APO2.7 (%) ([1]; 100 nM agent) | APO2.7 (%) ([1]; 500 nM agent) | APO2.7 (%) ([1]; 1000 nM agent) | induction of apoptosis / chemosensitivity in telomestatin-treated K562 cells compared with control cells [1] | time until proliferation is slowed [3] [weeks]
– | CC[C@]1(O)C[C@H]2CN(CCc3c([nH]c4ccccc34)[C@@](C(=O)OC)(c3cc4c(cc3OC)N(C=O)[C@H]3[C@@](O)(C(=O)OC)[C@H](OC(C)=O)[C@]5(CC)C=CCN6CC[C@]43[C@@H]65)C2)C1 [VCR (control), vincristine] | 12 | 18 | 24 | 29 | 34 | enhanced induction of apoptosis | –
– | COc1cc([C@@H]2c3cc4c(cc3[C@@H](O[C@@H]3O[C@@H]5CO[C@@H](C)O[C@H]5[C@H](O)[C@H]3O)[C@H]3COC(=O)[C@H]23)OCO4)cc(OC)c1O [etoposide (VP-16), etoposide] | – | – | – | – | – | significant chemosensitivity is not observed | –
– | Sc1ncnc2nc[nH]c12 [6-mercaptopurine (6-MP), 6-mercaptopurine] | – | – | – | – | – | significant chemosensitivity is not observed | –
– | CN(Cc1cnc2nc(N)nc(N)c2n1)c1ccc(C(=O)N[C@@H](CCC(=O)O)C(=O)O)cc1 [methotrexate (MTX), methotrexate] | – | – | – | – | – | significant chemosensitivity is not observed | –
– | COc1cccc2c1C(=O)c1c(O)c3c(c(O)c1C2=O)C[C@@](O)(C(C)=O)C[C@@H]3O[C@H]1C[C@H](N)[C@H](O)[C@H](C)O1 [DNR (control), Daunorubicin] | 11 | 23 | 36 | 53 | – | enhanced induction of apoptosis | –
– | O=C1c2c(O)ccc(O)c2C(=O)c2c(NCCNCCO)ccc(NCCNCCO)c21 [MIT (control), mitoxantrone] | 10 | 12 | 17 | 29 | 38 | enhanced induction of apoptosis | –
significantly less sensitive | Cc1oc2nc1-c1nc(co1)-c1nc(co1)-c1nc(co1)-c1nc(co1)-c1nc(co1)C1=NC(CS1)c1nc-2c(C)o1 (centres unmarked) [telomestatin] | – | – | – | – | – | – | ≤ 2
– | Nc1ccn([C@@H]2O[C@H](CO)[C@@H](O)[C@@H]2O)c(=O)n1 [cytosine arabimoside, cytosine arabinoside] | – | – | – | – | – | significant chemosensitivity is not observed | –
